Results: ChEMBL document CHEMBL1782000, “Thiazole-based chalcones as potent antimicrobial agents. Synthesis and biological evaluation” (2011)
Values after ≈ are worked out from the molar mass of the structure shown.

Columns and labels:
[1] = tested on: Penicillium ochrochloron; test: Antifungal activity against Penicillium ochrochloron ATCC 9112 after 72 hrs by serial dilution method; format: functional; settings: ATCC 9112, 72 h
[2] = tested on: Aspergillus versicolor; test: Antifungal activity against Aspergillus versicolor ATCC 11730 after 72 hrs by serial dilution method; format: functional; settings: ATCC 11730, 72 h
[3] = tested on: Aspergillus ochraceus; test: Antifungal activity against Aspergillus ochraceus ATCC 12066 after 72 hrs by serial dilution method; format: functional; settings: ATCC 12066, 72 h
[4] = tested on: Listeria monocytogenes; test: Antibacterial activity against Listeria monocytogenes NCTC 7973 after 24 hrs by microdilution method; format: functional; settings: NCTC 7973, 24 h
[5] = Antifungal activity against Fusarium sporotrichioides IMT 496 after 72 hrs by serial dilution method; format: functional
[6] = tested on: Penicillium ochrochloron; test: Fungicidal activity against Penicillium ochrochloron ATCC 9112 after 72 hrs; format: functional; settings: ATCC 9112, 72 h
[7] = tested on: Aspergillus versicolor; test: Fungicidal activity against Aspergillus versicolor ATCC 11730 after 72 hrs; format: functional; settings: ATCC 11730, 72 h
[8] = tested on: Aspergillus fumigatus; test: Antifungal activity against Aspergillus fumigatus plant isolate after 72 hrs by serial dilution method; format: functional
[9] = tested on: Aspergillus ochraceus; test: Fungicidal activity against Aspergillus ochraceus ATCC 12066 after 72 hrs; format: functional; settings: ATCC 12066, 72 h
[10] = tested on: Talaromyces funiculosus; test: Antifungal activity against Penicillium funiculosum ATCC 36839 after 72 hrs by serial dilution method; format: functional; settings: ATCC 36839, 72 h
[11] = tested on: Staphylococcus aureus; test: Antibacterial activity against Staphylococcus aureus ATCC 6538 after 24 hrs by microdilution method; format: functional; settings: ATCC 6538, 24 h
[12] = tested on: Pseudomonas aeruginosa; test: Bactericidal activity against Pseudomonas aeruginosa ATCC 27853 after 24 hrs; format: functional; settings: ATCC 27853, 24 h
[13] = tested on: Salmonella typhimurium; test: Antibacterial activity against Salmonella Typhimurium ATCC 13311 after 24 hrs by microdilution method; format: functional, Salmonella enterica subsp. enterica serovar Typhimurium; settings: Salmonella enterica, ATCC 13311, 24 h
[14] = tested on: Aspergillus fumigatus; test: Fungicidal activity against Aspergillus fumigatus plant isolate after 72 hrs; format: functional
[15] = tested on: Salmonella typhimurium; test: Bactericidal activity against Salmonella Typhimurium ATCC 13311 after 24 hrs; format: functional, Salmonella enterica subsp. enterica serovar Typhimurium; settings: Salmonella enterica, ATCC 13311, 24 h
[16] = tested on: Escherichia coli; test: Antibacterial activity against Escherichia coli ATCC 35210 after 24 hrs by microdilution method; format: functional; settings: ATCC 35210, 24 h
[17] = tested on: Trichoderma viride; test: Fungicidal activity against Trichoderma viride IAM 5061 after 72 hrs; format: functional; settings: IAM 5061, 72 h
[18] = tested on: Bacillus cereus; test: Bactericidal activity against Bacillus cereus clinical isolate after 24 hrs; format: functional
[19] = tested on: Talaromyces funiculosus; test: Fungicidal activity against Penicillium funiculosum ATCC 36839 after 72 hrs; format: functional; settings: ATCC 36839, 72 h
[20] = tested on: Listeria monocytogenes; test: Bactericidal activity against Listeria monocytogenes NCTC 7973 after 24 hrs; format: functional; settings: NCTC 7973, 24 h
[21] = tested on: Enterococcus faecalis; test: Bactericidal activity against Enterococcus faecalis isolate obtained from human after 24 hrs; format: functional
[22] = tested on: Micrococcus flavus; test: Antibacterial activity against Micrococcus flavus ATCC 10240 after 24 hrs by microdilution method; format: functional; settings: ATCC 10240, 24 h
[23] = tested on: Escherichia coli; test: Bactericidal activity against Escherichia coli ATCC 35210 after 24 hrs; format: functional; settings: ATCC 35210, 24 h
[24] = tested on: Aspergillus niger; test: Fungicidal activity against Aspergillus niger ATCC 6275 after 72 hrs; format: functional; settings: ATCC 6275, 72 h
[25] = tested on: Bacillus cereus; test: Antibacterial activity against Bacillus cereus clinical isolate after 24 hrs by microdilution method; format: functional
[26] = tested on: Trichoderma viride; test: Antifungal activity against Trichoderma viride IAM 5061 after 72 hrs by serial dilution method; format: functional; settings: IAM 5061, 72 h
[27] = tested on: Micrococcus flavus; test: Bactericidal activity against Micrococcus flavus ATCC 10240 after 24 hrs; format: functional; settings: ATCC 10240, 24 h
[28] = tested on: Pseudomonas aeruginosa; test: Antibacterial activity against Pseudomonas aeruginosa ATCC 27853 after 24 hrs by microdilution method; format: functional; settings: ATCC 27853, 24 h
[29] = tested on: Aspergillus niger; test: Antifungal activity against Aspergillus niger ATCC 6275 after 72 hrs by serial dilution method; format: functional; settings: ATCC 6275, 72 h
[30] = tested on: Enterococcus faecalis; test: Antibacterial activity against Enterococcus faecalis isolate obtained from human after 24 hrs by microdilution method; format: functional
[31] = tested on: Staphylococcus aureus; test: Bactericidal activity against Staphylococcus aureus ATCC 6538 after 24 hrs; format: functional; settings: ATCC 6538, 24 h
[32] = tested on: Fusarium sporotrichioides; test: Fungicidal activity against Fusarium sporotrichioides IMT 496 after 72 hrs; format: functional; settings: IMT 496, 72 h
[33] = tested on: Enterococcus faecalis; test: Ratio of Ampicillin MIC to compound MIC for Enterococcus faecalis after 24 hrs; format: functional

SMILES	MIC [1]	MIC [2]	MIC [3]	MIC [4]	MIC (10'-2 umol/ml) [5]	MFC [6]	MFC [7]	MIC [8]	MFC [9]	MIC [10]	MIC [11]	MBC [12]	MIC [13]	MFC [14]	MBC [15]	MIC [16]	MFC [17]	MBC [18]	MFC [19]	MBC [20]	other results
CNc1nc(C)c(C(=O)/C=C/c2ccc([N+](=O)[O-])cc2)s1	330 µM (≈ 100 µg/mL)	330 µM (≈ 100 µg/mL)	250 µM (≈ 75.8 µg/mL)	330 µM (≈ 100 µg/mL)	16.5	496 µM (≈ 150 µg/mL)	496 µM (≈ 150 µg/mL)	330 µM (≈ 100 µg/mL)	330 µM (≈ 100 µg/mL)	330 µM (≈ 100 µg/mL)	330 µM (≈ 100 µg/mL)	495 µM (≈ 150 µg/mL)	248 µM (≈ 75.1 µg/mL)	496 µM (≈ 150 µg/mL)	330 µM (≈ 100 µg/mL)	248 µM (≈ 75.1 µg/mL)	330 µM (≈ 100 µg/mL)	495 µM (≈ 150 µg/mL)	496 µM (≈ 150 µg/mL)	495 µM (≈ 150 µg/mL)	MBC [21]: 330 µM (≈ 100 µg/mL); MIC [22]: 330 µM (≈ 100 µg/mL); MBC [23]: 330 µM (≈ 100 µg/mL); MFC [24]: 825 µM (≈ 250 µg/mL); MIC [25]: 330 µM (≈ 100 µg/mL); MIC [26]: 165 µM (≈ 50.1 µg/mL); MBC [27]: 495 µM (≈ 150 µg/mL); MIC [28]: 330 µM (≈ 100 µg/mL); MIC [29]: 330 µM (≈ 100 µg/mL); MIC [30]: 165 µM (≈ 50.1 µg/mL); MBC [31]: 495 µM (≈ 150 µg/mL); MFC [32]: 660 µM (≈ 200 µg/mL)
CNc1nc(C)c(C(=O)/C=C/c2ccccc2)s1	194 µM (≈ 50.1 µg/mL)	194 µM (≈ 50.1 µg/mL)	388 µM (≈ 100 µg/mL)	388 µM (≈ 100 µg/mL)	38.8	775 µM (≈ 200 µg/mL)	581 µM (≈ 150 µg/mL)	388 µM (≈ 100 µg/mL)	581 µM (≈ 150 µg/mL)	388 µM (≈ 100 µg/mL)	388 µM (≈ 100 µg/mL)	388 µM (≈ 100 µg/mL)	329 µM (≈ 85.1 µg/mL)	581 µM (≈ 150 µg/mL)	388 µM (≈ 100 µg/mL)	329 µM (≈ 85.1 µg/mL)	388 µM (≈ 100 µg/mL)	581 µM (≈ 150 µg/mL)	581 µM (≈ 150 µg/mL)	581 µM (≈ 150 µg/mL)	MBC [21]: 388 µM (≈ 100 µg/mL); MIC [22]: 194 µM (≈ 50 µg/mL); MBC [23]: 388 µM (≈ 100 µg/mL); MFC [24]: 775 µM (≈ 200 µg/mL); MIC [25]: 388 µM (≈ 100 µg/mL); MIC [26]: 194 µM (≈ 50.1 µg/mL); MBC [27]: 388 µM (≈ 100 µg/mL); MIC [28]: 291 µM (≈ 75.1 µg/mL); MIC [29]: 388 µM (≈ 100 µg/mL); MIC [30]: 194 µM (≈ 50 µg/mL); MBC [31]: 581 µM (≈ 150 µg/mL); MFC [32]: 388 µM (≈ 100 µg/mL)
CNc1nc(C)c(C(=O)/C=C/c2ccccc2Cl)s1	306 µM (≈ 89.5 µg/mL)	153 µM (≈ 44.8 µg/mL)	306 µM (≈ 89.5 µg/mL)	306 µM (≈ 89.5 µg/mL)	15.3	459 µM (≈ 134 µg/mL)	459 µM (≈ 134 µg/mL)	306 µM (≈ 89.5 µg/mL)	459 µM (≈ 134 µg/mL)	306 µM (≈ 89.5 µg/mL)	306 µM (≈ 89.5 µg/mL)	306 µM (≈ 89.5 µg/mL)	306 µM (≈ 89.5 µg/mL)	612 µM (≈ 179 µg/mL)	459 µM (≈ 134 µg/mL)	229 µM (≈ 67.1 µg/mL)	306 µM (≈ 89.5 µg/mL)	306 µM (≈ 89.5 µg/mL)	612 µM (≈ 179 µg/mL)	459 µM (≈ 134 µg/mL)	MBC [21]: 153 µM (≈ 44.8 µg/mL); MIC [22]: 229 µM (≈ 67.1 µg/mL); MBC [23]: 306 µM (≈ 89.5 µg/mL); MFC [24]: 612 µM (≈ 179 µg/mL); MIC [25]: 229 µM (≈ 67.1 µg/mL); Ratio [33]: 3; MIC [26]: 153 µM (≈ 44.8 µg/mL); MBC [27]: 260 µM (≈ 76.1 µg/mL); MIC [28]: 260 µM (≈ 76.1 µg/mL); MIC [29]: 306 µM (≈ 89.5 µg/mL); MIC [30]: 76.4 µM (≈ 22.4 µg/mL); MBC [31]: 459 µM (≈ 134 µg/mL); MFC [32]: 459 µM (≈ 134 µg/mL)
